# Columns and labels:
# Haemophilus influenzae [1] = assay: Antibacterial activity against Haemophilus influenzae 1 after 20 hrs by agar dilution method; type: functional; conditions: Haemophilus influenzae, 1, 20 h
# Streptococcus pneumoniae [2] = assay: Antibacterial activity against Streptococcus pneumoniae 9 expressing inducible ermB methylase after 20 hrs by agar dilution method; type: functional; conditions: Streptococcus pneumoniae, 9, 20 h
# Streptococcus pneumoniae [3] = assay: Antibacterial activity against Streptococcus pneumoniae 7 expressing constitutive ermB methylase after 20 hrs by agar dilution method; type: functional; conditions: Streptococcus pneumoniae, 7, 20 h
# Streptococcus pyogenes [4] = assay: Antibacterial activity against Streptococcus pyogenes 3 expressing mefA efflux pump after 20 hrs by agar dilution method; type: functional; conditions: Streptococcus pyogenes, 3, 20 h
# Streptococcus pyogenes [5] = assay: Antibacterial activity against Streptococcus pyogenes 2 expressing constitutive ermB methylase after 20 hrs by agar dilution method; type: functional; conditions: Streptococcus pyogenes, 2, 20 h
# Streptococcus pneumoniae [6] = assay: Antibacterial activity against Streptococcus pneumoniae DP1 type 1 after 20 hrs by agar dilution method; type: functional; conditions: DP1 type1, 20 h
# Haemophilus influenzae [7] = assay: Antibacterial activity against Haemophilus influenzae 2 after 20 hrs by agar dilution method; type: functional; conditions: Haemophilus influenzae, 2, 20 h
# Streptococcus pneumoniae [8] = assay: Antibacterial activity against Streptococcus pneumoniae 10 expressing mefA efflux pump after 20 hrs by agar dilution method; type: functional; conditions: Streptococcus pneumoniae, 10, 20 h
# Streptococcus pneumoniae [9] = assay: Antibacterial activity against Streptococcus pneumoniae 8 expressing inducible ermB methylase after 20 hrs by agar dilution method; type: functional; conditions: Streptococcus pneumoniae, 8, 20 h
# Streptococcus pyogenes [10] = assay: Antibacterial activity against Streptococcus pyogenes Cook after 20 hrs by agar dilution method; type: functional
# Staphylococcus aureus = assay: Antibacterial activity against Staphylococcus aureus 209P JC1 after 20 hrs by agar dilution method; type: functional; conditions: 209P JC1, 20 h
# Streptococcus pneumoniae [11] = assay: Antibacterial activity against Streptococcus pneumoniae 6 expressing constitutive ermB methylase and mefA after 20 hrs by agar dilution method; type: functional; conditions: Streptococcus pneumoniae, 6, 20 h
# Haemophilus influenzae [12] = assay: Antibacterial activity against Haemophilus influenzae 3 after 20 hrs by agar dilution method; type: functional; conditions: Haemophilus influenzae, 3, 20 h
# Streptococcus pneumoniae [13] = assay: Antibacterial activity against Streptococcus pneumoniae 5 expressing constitutive ermB methylase after 20 hrs by agar dilution method; type: functional; conditions: Streptococcus pneumoniae, 5, 20 h
# Streptococcus pneumoniae [14] = assay: Antibacterial activity against Streptococcus pneumoniae 11 expressing mefA efflux pump after 20 hrs by agar dilution method; type: functional; conditions: Streptococcus pneumoniae, 11, 20 h
# [15] = Metabolic stability at human liver S9 fraction assessed as compound remaining after 1 hr; type: ADME, subcellular; conditions: read-out: Stability
SMILES,MIC (Haemophilus influenzae [1]) [µg/mL],MIC (Streptococcus pneumoniae [2]) [µg/mL],MIC (Streptococcus pneumoniae [3]) [µg/mL],MIC (Streptococcus pyogenes [4]) [µg/mL],MIC (Streptococcus pyogenes [5]) [µg/mL],MIC (Streptococcus pneumoniae [6]) [µg/mL],MIC (Haemophilus influenzae [7]) [µg/mL],MIC (Streptococcus pneumoniae [8]) [µg/mL],MIC (Streptococcus pneumoniae [9]) [µg/mL],MIC (Streptococcus pyogenes [10]) [µg/mL],MIC (Staphylococcus aureus) [µg/mL],MIC (Streptococcus pneumoniae [11]) [µg/mL],MIC (Haemophilus influenzae [12]) [µg/mL],MIC (Streptococcus pneumoniae [13]) [µg/mL],MIC (Streptococcus pneumoniae [14]) [µg/mL],remaining at 1 h [15] [%]
CCNC(=O)O[C@H]1[C@H](C)O[C@@H](O[C@H]2[C@H](N(C)C)[C@@H](O)[C@H](O[C@H]3[C@@H](CC=O)C[C@@H](C)[C@@H](O)CN(C)CCC[C@H](C/C=C/c4ccc(N)nc4)OC(=O)C[C@@H](O)[C@@H]3OC)O[C@@H]2C)C[C@@]1(C)OC(=O)CC,4,0.25,4,0.13,16,0.03,8,0.06,0.25,0.13,2,4,16,4,0.13,–
CCNC(=O)O[C@H]1[C@H](C)O[C@@H](O[C@H]2[C@H](N(C)C)[C@@H](O)[C@H](O[C@H]3[C@@H](CC=O)C[C@@H](C)[C@@H](O)CN(C)CCC[C@H](C/C=C/c4cnc(N)c5ccccc45)OC(=O)C[C@@H](O)[C@@H]3OC)O[C@@H]2C)C[C@@]1(C)OC(=O)CC,2,0.03,1,0.03,2,0.015,4,0.015,0.06,0.03,0.5,1,8,1,0.015,–
CC[C@H]1OC(=O)[C@H](C)[C@@H](O[C@H]2C[C@@](C)(OC)[C@@H](O)[C@H](C)O2)[C@H](C)[C@@H](O[C@@H]2O[C@H](C)C[C@H](N(C)C)[C@H]2O)[C@](C)(OC)C[C@@H](C)C(=O)[C@H](C)[C@@H](O)[C@]1(C)O [CLARITHROMYCIN],2,> 128,> 128,8,> 128,0.03,8,1,> 128,0.03,0.13,> 128,8,> 128,1,–
CCC(=O)O[C@@H]1CC(=O)O[C@H](C)C/C=C/C=C/[C@H](OC(C)=O)[C@H](C)C[C@H](CC=O)[C@H](O[C@@H]2O[C@H](C)[C@@H](O[C@H]3C[C@@](C)(OC(C)=O)[C@@H](OC(=O)CC)[C@H](C)O3)[C@H](N(C)C)[C@H]2O)[C@H]1OC [MIOCAMYCIN],4,8,> 128,0.5,> 128,0.13,16,0.25,4,0.13,0.5,> 128,16,> 128,0.25,5.1
CCCC(=O)O[C@H]1[C@H](C)O[C@@H](O[C@H]2[C@H](N(C)C)[C@@H](O)[C@H](O[C@H]3[C@@H](CC=O)C[C@@H](C)[C@@H](O)/C=C/C=C/C[C@@H](C)OC(=O)C[C@@H](O)[C@@H]3OC)O[C@@H]2C)C[C@@]1(C)OC(=O)CC [ROKITAMYCIN],2,1,> 128,0.13,> 128,0.03,8,0.06,1,0.06,0.13,> 128,8,> 128,0.06,–
CC[C@H]1OC(=O)[C@H](C)C(=O)[C@H](C)[C@@H](O[C@@H]2O[C@H](C)C[C@H](N(C)C)[C@H]2O)[C@](C)(OC)C[C@@H](C)C(=O)[C@H](C)[C@H]2N(CCCCn3cnc(-c4cccnc4)c3)C(=O)O[C@]12C [TELITHROMYCIN],0.5,0.06,1,0.5,16,< 0.008,2,0.06,0.06,< 0.008,0.03,1,1,0.5,0.06,84
